Test results taken from publication PMC6730478, “Discovery of N-(2-Aminophenyl)-4-(bis(2-chloroethyl)amino)Benzamide as a Potent Histone Deacetylase Inhibitor” (Frontiers in Pharmacology, 2019).

Tests used:
HDAC1 = target: T1, HDAC1 (Homo sapiens, UniProt Q13547); experiment: In vitro HDAC inhibitory assay (fluorogenic substrate); assay type: biochemical
T1 construct: purchased BPS Bioscience
Method: (§1) All of the HDAC enzymes were bought from BPS Bioscience. In vitro HDAC inhibition assays were conducted as previously described. Briefly, 20 μl of recombinant HDAC enzyme solution (HDAC1−9) was mixed with various concentrations of tested compound (20 μl). The mixture was incubated at 30°C for 1 h (for the time-dependent assay, the mixture was incubated for 15, 30, 60, and 90 min, respectively), and then 10 μl of fluorogenic substrate (Boc-Lys (acetyl)-AMC (3 mM) for HDAC1, 2, 3, and 6, Boc-Lys (trifluoroacetyl)-AMC (3 mM) for HDAC 4, 7, 8, and 9) was added. After incubation at 30°C for 2 h, the catalytic reaction was stopped by addition of 10 μl of developer containing trypsin and trichostatin A (TSA). After 30 min, fluorescence intensity was measured using a microplate reader at excitation and emission wavelengths of 360 and 460 nm, respectively. The inhibition ratios were calculated from the fluorescence intensity readings of tested wells relative to those of control wells, and the IC50 curves and values were determined by GraphPad Prism 6.0 software.

HDAC7 = target: T2, HDAC7 (Homo sapiens, UniProt Q8WUI4); experiment: as above; assay type: biochemical; conditions: n ≥ 2, SD <10% of the mean; read-out: Enzyme inhibitory activity IC50, HDAC7
T2 construct: purchased BPS Bioscience
Method: as §1

HDAC2 = target: T3, HDAC2 (Homo sapiens, UniProt Q92769); experiment: biochemical; conditions: n ≥ 2, SD <10% of the mean; read-out: Enzyme inhibitory activity IC50, HDAC2
T3 construct: purchased BPS Bioscience
Method: as §1

HDAC3 = target: T4, HDAC3 (Homo sapiens, UniProt O15379); experiment: biochemical; conditions: n ≥ 2, SD <10% of the mean; read-out: Enzyme inhibitory activity IC50, HDAC3
T4 construct: purchased BPS Bioscience
Method: as §1

HDAC4 = target: T5, HDAC4 (Homo sapiens, UniProt P56524); experiment: biochemical
T5 construct: purchased BPS Bioscience
Method: as §1

HDAC6 = target: T6, HDAC6 (Homo sapiens, UniProt Q9UBN7); experiment: biochemical
T6 construct: purchased BPS Bioscience
Method: as §1

HDAC8 = target: T7, HDAC8 (Homo sapiens, UniProt Q9BY41); experiment: biochemical
T7 construct: purchased BPS Bioscience
Method: as §1

HDAC9 = target: T8, HDAC9 (Homo sapiens, UniProt Q9UKV0); experiment: biochemical
T8 construct: purchased BPS Bioscience
Method: as §1

A2780 cells = experiment: MTT antiproliferative assay; assay type: cell-based; conditions: for IC50: Homo sapiens, A2780, 48 h, read-out: Antiproliferative activity IC50, A2780
Method: . The stock solutions of tested compounds were diluted with culture medium. The cells were seeded in 96-well plates at a density 5 × 10^3 cells per well and incubated until confluency of 90–95%, and then each well was treated with 100 µl of medium containing the desired concentrations of tested compounds and incubated for 48 h. MTT working solution of 20 µl (5 mg/ml) was then added to each well and incubated for another 4 h. At the end of incubation, the medium were carefully removed, and 200 µl of DMSO was added. The optical density at 490 and 630 nm was then measured with a microplate reader (Model 680, Bio-Rad). […] The IC50 values were calculated with Origin 7.5 software, and standard deviations of the IC50 values were obtained from at least three independent experiments.

A549 cells = experiment: MTT antiproliferative assay; assay type: cell-based; conditions: Homo sapiens, A549, 48 h, read-out: Antiproliferative activity IC50, A549
Method: (§2) The stock solutions of tested compounds were diluted with culture medium. […] MTT working solution of 20 µl (5 mg/ml) was then added to each well and incubated for another 4 h. At the end of incubation, the medium were carefully removed, and 200 µl of DMSO was added. The optical density at 490 and 630 nm was then measured with a microplate reader (Model 680, Bio-Rad). […] The IC50 values were calculated with Origin 7.5 software, and standard deviations of the IC50 values were obtained from at least three independent experiments.

Calu-3 cells = experiment: MTT antiproliferative assay; assay type: cell-based; conditions: Homo sapiens, Calu-3, 48 h, read-out: Antiproliferative activity IC50, Calu-3
Method: as §2

Colo205 cells = experiment: MTT antiproliferative assay; assay type: cell-based; conditions: Homo sapiens, COLO 205, 48 h, read-out: Antiproliferative activity IC50, Colo205
Method: as §2

HepG2 cells [1] = experiment: MTT antiproliferative assay; assay type: cell-based
Method: as §2

LoVo cells = experiment: MTT antiproliferative assay; assay type: cell-based; conditions: Homo sapiens, 48 h, read-out: Antiproliferative activity IC50, LoVo
Method: as §2

MCF-7 cells = experiment: MTT antiproliferative assay; assay type: cell-based; conditions: Homo sapiens, MCF7, 48 h, read-out: Antiproliferative activity IC50, MCF-7
Method: as §2

MDA-MB-231 cells = experiment: MTT antiproliferative assay; assay type: cell-based; conditions: Homo sapiens, MDA-MB-231, 48 h, read-out: Antiproliferative activity IC50, MDA-MB-231
Method: as §2

MDA-MB-468 cells = experiment: MTT antiproliferative assay; assay type: cell-based; conditions: Homo sapiens, MDA-MB-468, 48 h, read-out: Antiproliferative activity IC50, MDA-MB-468
Method: as §2

MKN45 cells = experiment: MTT antiproliferative assay; assay type: cell-based; conditions: Homo sapiens, MKN-45, 48 h, read-out: Antiproliferative activity IC50, MKN45
Method: as §2

PNAC-1 cells = experiment: MTT antiproliferative assay; assay type: cell-based; conditions: 48 h, read-out: Antiproliferative activity IC50, PNAC-1
Method: as §2

SKOV3 cells = experiment: MTT antiproliferative assay; assay type: cell-based; conditions: Homo sapiens, SK-OV-3, 48 h, read-out: Antiproliferative activity IC50, SKOV3
Method: as §2

U937 cells = experiment: MTT antiproliferative assay; assay type: cell-based; conditions: Homo sapiens, U-937, 48 h, read-out: Antiproliferative activity IC50, U937
Method: as §2

HepG2 cells [2] = experiment: Cell cycle assay (PI staining, flow cytometry); assay type: cell-based; conditions: 6 h; for HepG2 cells at the G2/M phase: control 21.24%; for HepG2 cell population at the G0/G1 phase: control 55.60%
Method: Cells were then washed twice with cold phosphate-buffered saline (PBS) and fixed in 70% precooled ethanol at 4°C for 12 h. After the fixation, cells were washed again with PBS and stained with PI/RNase A for 30 min at room temperature and eventually subjected to flow cytometry (CytoFLEX, Beckman Coulter) for cell cycle distribution determination.

HepG2 cells [3] = experiment: Annexin V-FITC/PI apoptosis detection (flow cytometry); assay type: cell-based; conditions: 24 h, control 3.52%
Method: Cells were then washed with PBS, collected, resuspended with binding buffer from the annexin V-FITC kit (Thermo Fisher Co., USA) and then added with 5 µl of annexin V-FITC and mixed gently. After 10 min of incubation, 1 µl of PI was added to each sample and mixed gently. After incubation at room temperature for another 20 min in the dark, cells were subjected to flow cytometry (CytoFLEX, Beckman Coulter).

cleaved caspase-3 = experiment: Western blot in HepG2 cells; assay type: cell-based; conditions: 1 µM, 24 h, compared with SAHA
Method: (§3) Protein sample concentrations were determined with Brandford assay. Thirty micrograms of each sample was subjected to sodium dodecyl sulfate–polyacrylamide gel electrophoresis (SDS-PAGE). After electrophoresis, proteins were transferred to polyvinylidene difluoride (PVDF) membrane (Millipore) and blocked with 5% fat-free dry milk in 1 × Tris-buffered saline (TBST) for 2 h at room temperature. Membranes were then probed with corresponding antibodies at 4°C overnight. Cleaved caspase-3 (#9661), caspase-3 (#9662), cleaved caspase-9 (#9505), caspase-9 (#9508), phospho-cdc2 (#4539), and cdc2 (#77055) antibodies were obtained from Cell Signaling Technology (Danvers, MA). Expression of human β-actin was detected with anti-β-actin antibody (Proteintech, Rosemont, IL) as a loading control. The membranes were then incubated with horseradish peroxidase (HRP)-conjugated secondary antibody (Santa Cruz, CA) and visualized with enhanced chemiluminescence (ECL)-detecting reagents (ComWin Biotech Co., Beijing, China).

cleaved caspase-9 = experiment: Western blot in HepG2 cells; assay type: cell-based; conditions: 1 µM, 24 h, compared with SAHA
Method: as §3

phosphorylated cdc2 = experiment: Western blot in HepG2 cells; assay type: cell-based; conditions: 1 µM, 24 h, compared with SAHA
Method: as §3

[4] = more potent than SAHA, ratio of IC50 values

T1 sequence (Q13547 whole entry): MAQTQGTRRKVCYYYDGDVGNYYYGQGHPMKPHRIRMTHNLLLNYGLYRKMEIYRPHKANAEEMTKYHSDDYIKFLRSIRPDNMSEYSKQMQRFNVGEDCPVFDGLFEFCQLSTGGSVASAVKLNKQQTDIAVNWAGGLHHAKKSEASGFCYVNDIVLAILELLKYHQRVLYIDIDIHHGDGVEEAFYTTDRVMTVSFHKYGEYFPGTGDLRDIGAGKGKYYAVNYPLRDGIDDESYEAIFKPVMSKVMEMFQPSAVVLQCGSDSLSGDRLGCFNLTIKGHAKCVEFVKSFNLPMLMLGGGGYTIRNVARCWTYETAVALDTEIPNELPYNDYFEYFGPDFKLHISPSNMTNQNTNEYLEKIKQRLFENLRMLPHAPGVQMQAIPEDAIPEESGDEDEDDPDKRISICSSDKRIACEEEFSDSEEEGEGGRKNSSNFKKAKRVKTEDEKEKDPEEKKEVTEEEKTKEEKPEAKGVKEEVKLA
T6 sequence (Q9UBN7 whole entry): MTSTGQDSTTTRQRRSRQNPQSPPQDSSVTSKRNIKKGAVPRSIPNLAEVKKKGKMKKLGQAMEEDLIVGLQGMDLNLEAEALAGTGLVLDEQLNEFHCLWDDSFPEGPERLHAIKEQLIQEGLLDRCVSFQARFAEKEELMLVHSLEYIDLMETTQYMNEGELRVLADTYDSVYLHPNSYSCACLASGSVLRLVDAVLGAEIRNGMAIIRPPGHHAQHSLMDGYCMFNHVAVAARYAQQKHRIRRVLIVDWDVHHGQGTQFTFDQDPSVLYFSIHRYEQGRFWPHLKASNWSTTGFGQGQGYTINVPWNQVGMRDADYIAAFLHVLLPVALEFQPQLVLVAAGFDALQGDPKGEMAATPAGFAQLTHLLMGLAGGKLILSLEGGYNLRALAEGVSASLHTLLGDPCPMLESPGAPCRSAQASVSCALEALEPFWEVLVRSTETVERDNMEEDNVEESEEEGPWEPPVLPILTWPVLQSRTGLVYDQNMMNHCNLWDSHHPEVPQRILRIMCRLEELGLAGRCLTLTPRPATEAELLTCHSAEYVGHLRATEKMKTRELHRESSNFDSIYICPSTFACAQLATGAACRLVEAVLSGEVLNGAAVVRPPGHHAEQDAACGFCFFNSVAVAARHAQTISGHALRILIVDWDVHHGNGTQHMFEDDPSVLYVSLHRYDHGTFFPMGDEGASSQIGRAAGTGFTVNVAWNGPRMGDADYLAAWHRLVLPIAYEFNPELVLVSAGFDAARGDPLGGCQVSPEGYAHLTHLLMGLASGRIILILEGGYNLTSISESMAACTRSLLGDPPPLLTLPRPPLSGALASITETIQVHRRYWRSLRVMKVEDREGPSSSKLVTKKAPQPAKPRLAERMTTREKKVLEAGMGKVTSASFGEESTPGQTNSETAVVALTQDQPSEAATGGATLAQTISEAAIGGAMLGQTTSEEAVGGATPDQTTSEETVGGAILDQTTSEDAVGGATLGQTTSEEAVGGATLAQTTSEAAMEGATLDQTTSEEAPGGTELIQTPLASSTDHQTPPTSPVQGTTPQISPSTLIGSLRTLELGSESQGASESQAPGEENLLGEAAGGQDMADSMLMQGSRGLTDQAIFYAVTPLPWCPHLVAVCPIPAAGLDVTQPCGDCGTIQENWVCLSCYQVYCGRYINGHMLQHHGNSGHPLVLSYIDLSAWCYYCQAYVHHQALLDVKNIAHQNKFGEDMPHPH
T3 sequence (Q92769 whole entry): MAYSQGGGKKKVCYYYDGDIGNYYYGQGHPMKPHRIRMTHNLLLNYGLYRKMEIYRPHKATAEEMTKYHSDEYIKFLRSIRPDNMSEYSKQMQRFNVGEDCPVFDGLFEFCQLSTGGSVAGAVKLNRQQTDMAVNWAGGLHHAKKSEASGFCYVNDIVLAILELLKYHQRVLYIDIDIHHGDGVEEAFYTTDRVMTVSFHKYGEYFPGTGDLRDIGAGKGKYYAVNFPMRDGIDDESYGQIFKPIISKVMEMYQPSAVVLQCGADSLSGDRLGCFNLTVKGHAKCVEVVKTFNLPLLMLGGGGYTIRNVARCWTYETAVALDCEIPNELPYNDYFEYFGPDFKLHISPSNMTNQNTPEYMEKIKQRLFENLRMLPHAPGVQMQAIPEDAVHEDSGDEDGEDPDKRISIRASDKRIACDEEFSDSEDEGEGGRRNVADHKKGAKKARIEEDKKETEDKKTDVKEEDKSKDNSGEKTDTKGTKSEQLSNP
T2 sequence (Q8WUI4 whole entry): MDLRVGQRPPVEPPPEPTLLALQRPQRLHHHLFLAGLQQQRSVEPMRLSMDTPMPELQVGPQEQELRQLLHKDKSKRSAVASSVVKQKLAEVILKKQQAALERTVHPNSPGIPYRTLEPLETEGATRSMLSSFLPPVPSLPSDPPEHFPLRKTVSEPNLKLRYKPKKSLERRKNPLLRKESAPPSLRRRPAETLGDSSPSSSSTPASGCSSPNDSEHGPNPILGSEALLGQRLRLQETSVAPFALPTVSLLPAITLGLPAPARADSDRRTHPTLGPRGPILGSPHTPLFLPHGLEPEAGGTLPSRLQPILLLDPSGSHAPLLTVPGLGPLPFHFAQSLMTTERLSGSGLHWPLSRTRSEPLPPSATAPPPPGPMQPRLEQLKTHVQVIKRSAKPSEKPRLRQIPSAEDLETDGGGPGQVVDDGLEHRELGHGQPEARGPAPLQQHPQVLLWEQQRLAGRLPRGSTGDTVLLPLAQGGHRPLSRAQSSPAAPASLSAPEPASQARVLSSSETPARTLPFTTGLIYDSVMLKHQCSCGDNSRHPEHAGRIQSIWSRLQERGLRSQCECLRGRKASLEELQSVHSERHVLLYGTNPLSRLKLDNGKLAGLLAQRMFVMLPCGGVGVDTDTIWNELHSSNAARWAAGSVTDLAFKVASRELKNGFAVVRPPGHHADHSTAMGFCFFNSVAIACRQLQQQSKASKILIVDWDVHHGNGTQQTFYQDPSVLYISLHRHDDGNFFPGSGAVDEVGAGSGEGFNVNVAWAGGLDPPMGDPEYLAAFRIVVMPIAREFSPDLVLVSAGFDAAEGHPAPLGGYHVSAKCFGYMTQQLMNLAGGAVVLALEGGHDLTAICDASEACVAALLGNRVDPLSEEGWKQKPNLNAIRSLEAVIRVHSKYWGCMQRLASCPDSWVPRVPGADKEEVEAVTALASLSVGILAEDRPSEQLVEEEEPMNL
T5 sequence (P56524 whole entry): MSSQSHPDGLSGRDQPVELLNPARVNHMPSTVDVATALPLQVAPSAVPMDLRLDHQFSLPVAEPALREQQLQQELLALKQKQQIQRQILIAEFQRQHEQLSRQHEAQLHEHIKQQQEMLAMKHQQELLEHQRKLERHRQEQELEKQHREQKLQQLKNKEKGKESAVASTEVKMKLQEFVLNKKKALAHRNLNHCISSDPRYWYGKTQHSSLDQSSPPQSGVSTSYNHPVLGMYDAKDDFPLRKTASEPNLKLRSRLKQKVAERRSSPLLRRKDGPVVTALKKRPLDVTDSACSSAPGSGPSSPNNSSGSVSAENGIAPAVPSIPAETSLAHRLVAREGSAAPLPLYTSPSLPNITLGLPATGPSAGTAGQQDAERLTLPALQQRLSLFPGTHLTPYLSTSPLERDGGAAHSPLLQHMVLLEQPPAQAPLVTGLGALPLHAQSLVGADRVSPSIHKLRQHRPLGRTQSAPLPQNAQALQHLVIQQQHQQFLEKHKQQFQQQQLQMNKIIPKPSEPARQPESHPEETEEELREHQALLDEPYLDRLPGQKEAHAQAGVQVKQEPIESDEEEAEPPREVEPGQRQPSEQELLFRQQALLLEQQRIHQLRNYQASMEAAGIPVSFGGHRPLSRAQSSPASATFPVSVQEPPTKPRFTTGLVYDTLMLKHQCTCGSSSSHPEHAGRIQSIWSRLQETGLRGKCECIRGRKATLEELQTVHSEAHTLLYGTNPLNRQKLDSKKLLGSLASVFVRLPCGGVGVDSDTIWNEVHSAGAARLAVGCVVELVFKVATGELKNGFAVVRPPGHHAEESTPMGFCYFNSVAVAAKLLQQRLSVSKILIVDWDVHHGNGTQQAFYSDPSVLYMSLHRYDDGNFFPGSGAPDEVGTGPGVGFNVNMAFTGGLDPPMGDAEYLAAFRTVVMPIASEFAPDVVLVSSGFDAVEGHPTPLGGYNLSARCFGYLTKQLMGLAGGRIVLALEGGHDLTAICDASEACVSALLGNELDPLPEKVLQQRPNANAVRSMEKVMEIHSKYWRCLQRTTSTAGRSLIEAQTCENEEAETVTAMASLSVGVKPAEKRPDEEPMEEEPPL
T7 sequence (Q9BY41 whole entry): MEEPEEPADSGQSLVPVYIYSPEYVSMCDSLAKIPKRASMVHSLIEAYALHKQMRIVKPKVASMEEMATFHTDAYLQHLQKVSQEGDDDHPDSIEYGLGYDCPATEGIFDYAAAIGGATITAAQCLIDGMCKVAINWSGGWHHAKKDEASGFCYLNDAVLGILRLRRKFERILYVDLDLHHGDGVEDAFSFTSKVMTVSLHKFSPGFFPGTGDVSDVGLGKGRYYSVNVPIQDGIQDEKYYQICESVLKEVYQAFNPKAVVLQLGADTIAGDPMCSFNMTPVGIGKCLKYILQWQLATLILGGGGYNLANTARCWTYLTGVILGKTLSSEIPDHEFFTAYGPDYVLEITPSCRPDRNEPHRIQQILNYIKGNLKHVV

Structure (SMILES): Nc1ccccc1NC(=O)c1ccc(N(CCCl)CCCl)cc1 [NA, N-(2-Aminophenyl)-4-(bis(2-chloroethyl)amino)benzamide]
- IC50 (HDAC1; n ≥ 2, SD <10% of the mean, read-out: Enzyme inhibitory activity IC50, HDAC1): 0.0952 µM
- HDAC1 selectivity versus HDAC2 (HDAC1; ratio of IC50 values, HDAC1 versus HDAC2): 2.74 fold
- HDAC1 selectivity versus HDAC3 (HDAC1; ratio of IC50 values, HDAC1 versus HDAC3): 2.69 fold
- IC50 (HDAC7): > 5 µM
- IC50 (HDAC2): 0.261 µM
- IC50 (HDAC3): 0.256 µM
- IC50 (HDAC4): > 5 µM
- IC50 (HDAC6): > 5 µM
- IC50 (HDAC8): > 5 µM
- IC50 (HDAC9): > 5 µM
- IC50 (A2780 cells): 2.66 µM
- Potency relative to SAHA, A2780 cell growth inhibition (A2780 cells; [4]): 10.3 fold
- IC50 (A549 cells): 14.7 µM
- IC50 (Calu-3 cells): 5.81 µM
- IC50 (Colo205 cells): 33.8 µM
- IC50 (HepG2 cells [1]; Homo sapiens, HepG2, 48 h, read-out: Antiproliferative activity IC50, HepG2): 1.73 µM
- Potency relative to SAHA, HepG2 cell growth inhibition (HepG2 cells [1]; [4]): 11.3 fold
- IC50 (LoVo cells): 10.4 µM
- IC50 (MCF-7 cells): 18.7 µM
- IC50 (MDA-MB-231 cells): 7.64 µM
- IC50 (MDA-MB-468 cells): 6.33 µM
- IC50 (MKN45 cells): 14.3 µM
- IC50 (PNAC-1 cells): 8.52 µM
- IC50 (SKOV3 cells): 3.91 µM
- IC50 (U937 cells): 1.21 µM
- HepG2 cells at the G2/M phase (HepG2 cells [2]; 1 µM): 25.98%
- HepG2 cell population at the G0/G1 phase (HepG2 cells [2]; 1 µM): 48.64%
- HepG2 cells at the G2/M phase (HepG2 cells [2]; 3 µM): 35.05%
- HepG2 cell population at the G0/G1 phase (HepG2 cells [2]; 3 µM): 41.61%
- HepG2 cells at the G2/M phase (HepG2 cells [2]; 9 µM): 38.89%
- HepG2 cell population at the G0/G1 phase (HepG2 cells [2]; 9 µM): 37.19%
- Percentage of apoptotic HepG2 cells (HepG2 cells [3]; 1 µM): 9.15%
- Percentage of apoptotic HepG2 cells (HepG2 cells [3]; 3 µM): 18.07%
- Percentage of apoptotic HepG2 cells (HepG2 cells [3]; 9 µM): 37.39%
- Protein expression level of cleaved caspase-3 (cleaved caspase-3): remarkedly increased
- Protein expression level of cleaved caspase-9 (cleaved caspase-9): remarkedly increased
- Phosphorylation of cdc2 (phosphorylated cdc2): up-regulated

Structure (SMILES): O=C(CCCCCCC(=O)Nc1ccccc1)NO [SAHA, Suberoylanilide hydroxamic acid, reference compound]
- IC50 (A2780 cells): 27.3 µM
- Effect on the population of HepG2 cells at the G0/G1 phase (in words) (HepG2 cells [2]; 1, 3, and 9 µM): no significant effects
- Percentage of apoptotic HepG2 cells (HepG2 cells [3]; 1 µM): 4.52%
- Percentage of apoptotic HepG2 cells (HepG2 cells [3]; 3 µM): 6.24%
- Percentage of apoptotic HepG2 cells (HepG2 cells [3]; 9 µM): 20.32%
